≈ marks a conversion by molar mass, not a printed value. Read-outs that look alike come from different tables or passages of the source.
Assays:
Assay type in all cases: cell-based
Enterobacter cloacae 163 = experiment: In vitro activity (MIC), agar dilution test
From the text: (§1) In the following Table there are presented for the composition in accordance with the invention the minimum inhibitory concentrations (MIC values in μ/ml) determined in in vitro comparative tests in the case of various infections with pathogenic microorganisms.
(§2) In vitro activity of compound A and mecillinam (MEC) against various
(§3) of bacteria (MIC μg/ml) Method: Agar dilution test with DST agar

Enterobacter cloacae 908 = experiment: In vitro activity (MIC), agar dilution test
From the text: as §1, §2, §3

Escherichia coli 5/9 = experiment: In vitro activity (MIC), agar dilution test
From the text: as §1, §2, §3

[1] = tested on: Citrobacter freundii 1385 b; experiment: In vitro activity (MIC), agar dilution test
From the text: as §1, §2, §3

[2] = tested on: Enterobacter cloacae MK 1617; experiment: In vitro activity (MIC), agar dilution test
From the text: as §1, §2, §3

[3] = tested on: Pseudomonas aeruginosa 5748; experiment: In vitro activity (MIC), agar dilution test
From the text: as §1, §2, §3

[4] = tested on: Pseudomonas aeruginosa 1937 E; experiment: In vitro activity (MIC), agar dilution test
From the text: as §1, §2, §3

[5] = tested on: Pseudomonas aeruginosa 143724 R; experiment: In vitro activity (MIC), agar dilution test
From the text: as §1, §2, §3

[6] = tested on: Citrobacter freundii 1982; experiment: In vitro activity (MIC), agar dilution test
From the text: as §1, §2, §3

[7] = tested on: Pseudomonas aeruginosa 1920 E; experiment: In vitro activity (MIC), agar dilution test
From the text: as §1, §2, §3

[8] = tested on: Pseudomonas aeruginosa 5646; experiment: In vitro activity (MIC), agar dilution test
From the text: as §1, §2, §3

[9] = tested on: Enterobacter cloacae MK 373; experiment: In vitro activity (MIC), agar dilution test; details: MK373
From the text: as §1, §2, §3

[10] = tested on: Acinetobacter anitratus 5I-156; experiment: In vitro activity (MIC), agar dilution test; details: Acinetobacter calcoaceticus, 5I156
From the text: as §1, §2, §3

Enterobacter cloacae P99 = experiment: In vitro activity (MIC), agar dilution test
From the text: as §1, §2, §3

Enterobacter cloacae 5 = experiment: In vitro activity (MIC), agar dilution test
From the text: as §1, §2, §3

[11] = tested on: Enterobacter agglomerans 960; experiment: In vitro activity (MIC), agar dilution test; details: Pantoea agglomerans
From the text: as §1, §2, §3

Enterobacter strains = experiment: Activity and synergism against Enterobacter strains
From the text: In the scope of the present invention it has been ascertained that compound A, which has hitherto not been considered as a combination partner for mecillinam, is especially well suited for such a combination.
as §1

[12] = single substance, DST agar (Oxoid), read-out: MIC

NC(=O)OC[C@@H]1[C@H](NC(=O)/C(=N\OCC(=O)O)c2csc(N)n2)C(=O)N1S(=O)(=O)O [Compound A, (2S,3S)-3-((Z)-2-(2-amino-4-thiazolyl)-2-[(carboxymethoxy)imino]acetamido)-2-[(carbamoyloxy)-methyl]-4-oxo-1-azetidinesulphonic acid]
MIC (Enterobacter cloacae 163; [12]): 32 µg/mL (≈ 68.6 µM) | MIC (Enterobacter cloacae 908; [12]): 32 µg/mL (≈ 68.6 µM) | MIC (Escherichia coli 5/9; [12]): 2 µg/mL (≈ 4.29 µM) | MIC [1, 12]: 8 µg/mL (≈ 17.2 µM) | MIC ([2]; MK1617, single substance, DST agar (Oxoid), read-out: MIC): 32 µg/mL (≈ 68.6 µM) | MIC [3]: 8 µg/mL (≈ 17.2 µM) | MIC [4, 12]: 2 µg/mL (≈ 4.29 µM) | MIC [5, 12]: 8 µg/mL (≈ 17.2 µM) | MIC [6, 12]: 4 µg/mL (≈ 8.58 µM) | MIC [7, 12]: 4 µg/mL (≈ 8.58 µM) | MIC [8, 12]: 8 µg/mL (≈ 17.2 µM) | MIC [9]: 4 µg/mL (≈ 8.58 µM) | MIC [10, 12]: 16 µg/mL (≈ 34.3 µM) | MIC (Enterobacter cloacae P99): 16 µg/mL (≈ 34.3 µM) | MIC (Enterobacter cloacae 5; [12]): 8 µg/mL (≈ 17.2 µM) | MIC [11, 12]: 16 µg/mL (≈ 34.3 µM) | sensitivity of the strains (Enterobacter strains): only moderately sensitive

CC1(C)S[C@@H]2[C@H](/N=C/N3CCCCCC3)C(=O)N2[C@H]1C(=O)O [MEC, mecillinam]
MIC (Enterobacter cloacae 163): > 256 µg/mL | MIC (Enterobacter cloacae 908): > 256 µg/mL | MIC (Escherichia coli 5/9): > 256 µg/mL | MIC [1]: > 256 µg/mL | MIC ([2]; MK1617): > 256 µg/mL | MIC [3]: > 256 µg/mL | MIC [4]: > 256 µg/mL | MIC [5]: > 256 µg/mL | MIC [6]: > 256 µg/mL | MIC [7]: > 256 µg/mL | MIC [8]: > 256 µg/mL | MIC [9]: > 256 µg/mL | MIC [10]: > 256 µg/mL | MIC (Enterobacter cloacae P99): > 256 µg/mL | MIC (Enterobacter cloacae 5): > 256 µg/mL | MIC [11]: > 256 µg/mL | sensitivity of the strains (Enterobacter strains): resistant
